Patent publication US20080096859A1, “Compositions and Methods for Treating Ophthalmic Diseases” (priority 2004, published 2008)
Counter-ions that a name gives are not always drawn.

Row | Structure (SMILES) | melting point [°C]
1 | c1ccc(CNC[C@@H]2CCN(CCc3c[nH]c4ccc(Cn5cncn5)cc34)C2)cc1 (as salt: oxalate) | 154 to 156
2 | c1ccc(CCNC[C@@H]2CCN(CCc3c[nH]c4ccc(-n5cnnc5)cc34)C2)cc1 (as salt: oxalate) (hydrate or solvate) | 189 to 190
